From ChEMBL document CHEMBL1201862, “PubChem BioAssay data set” (2004)
Calls of active or inactive are those of the source.

Assays:
[1] = target: T1, Rac GTPase-activating protein 1 (Homo sapiens, UniProt Q9H0H5); test: MgcRacGAP GTPase-activating activity inhibitors, confirmation, biochemical, ADP Hunter fluorescence, primary and confirmatory (AID 624330); type: functional
T1 sequence (Q9H0H5 whole entry): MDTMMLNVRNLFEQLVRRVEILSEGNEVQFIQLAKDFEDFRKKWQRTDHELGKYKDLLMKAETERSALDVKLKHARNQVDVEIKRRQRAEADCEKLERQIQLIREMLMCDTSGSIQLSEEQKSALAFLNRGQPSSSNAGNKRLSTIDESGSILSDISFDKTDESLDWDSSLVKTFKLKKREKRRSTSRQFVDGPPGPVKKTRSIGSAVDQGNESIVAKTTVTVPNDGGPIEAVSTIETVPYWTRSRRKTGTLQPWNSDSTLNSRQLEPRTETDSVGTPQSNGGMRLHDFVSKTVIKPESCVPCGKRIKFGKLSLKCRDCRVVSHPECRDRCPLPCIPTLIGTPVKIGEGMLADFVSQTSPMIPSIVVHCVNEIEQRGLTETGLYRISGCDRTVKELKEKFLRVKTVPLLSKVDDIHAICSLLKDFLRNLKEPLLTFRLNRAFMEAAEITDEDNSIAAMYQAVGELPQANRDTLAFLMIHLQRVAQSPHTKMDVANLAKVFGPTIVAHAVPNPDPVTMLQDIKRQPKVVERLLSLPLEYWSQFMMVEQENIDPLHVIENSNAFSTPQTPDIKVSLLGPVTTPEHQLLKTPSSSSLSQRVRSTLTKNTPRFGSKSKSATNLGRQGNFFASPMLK

[2] = HeLa cell cytotoxicity, dose response, cytotoxicity control for MgcRacGAP inhibitor project (AID 624300); type: functional
[3] = target: Luciferin 4-monooxygenase (Photinus pyralis, UniProt P08659); test: firefly luciferase enzyme inhibitors, dose response, biochemical, luminescence (AID 1891)
[4] = Luminescence Cell-Based Dose Confirmation HTS to Identify Inhibitors of Platelet Dense Granule Release. [Related pubchem assays: 1663 (Primary HTS), 1678 (Summary of Project)]; type: functional
HEK293 = test: inhibitors of LMP1-driven NF-kB reporter, dose response, cell-based, HEK293, luciferase, cherry-pick (AID 588343); type: functional; settings: Homo sapiens
[5] = inhibitors of HIV Env-driven cell fusion, dose response, cherry-pick (AID 652057); type: functional, cell-based
[6] = off-target signal loss in HeLa-CEM21 co-culture – HeLa F-luc CTL cells, cherry-picked, counter-screen for HIV-1 Env fusion inhibitor project, dose response (AID 652040); type: functional, cell-based;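 further: potency for signal decrease marking cytotoxic or nonspecific inhibition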
[7] = inhibitors of clade B AD8 Env fusion, dose response, cell-based, cherry-pick (AID 652062); type: functional;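 further: luciferase signal from cell-cell fusion driven by HIV-1 clade B AD8 Env; potency is for inhibitors of fusion seen as a drop in luminescence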
[8] = target: FAD-linked sulfhydryl oxidase ALR (Homo sapiens, UniProt P55789); test: inhibitors of human ALR sulfhydryl oxidase, dose response, biochemical, H2O2 detection, luminescence, cherry-pick (AID 493248)
[9] = ZM109 Env clade C HIV-1 fusion inhibitors, dose response, HeLa effector, CEM target cells, luciferase, cherry-pick (AID 652058); type: functional, cell-based
[10] = target: T2, DNA repair and recombination protein RAD54-like (Homo sapiens, UniProt Q92698); test: inhibitors of human RAD54 branch migration, confirmation, biochemical, fluorescence, cherry-picked samples, dose series (AID 651657); type: functional
T2 sequence (Q92698 whole entry): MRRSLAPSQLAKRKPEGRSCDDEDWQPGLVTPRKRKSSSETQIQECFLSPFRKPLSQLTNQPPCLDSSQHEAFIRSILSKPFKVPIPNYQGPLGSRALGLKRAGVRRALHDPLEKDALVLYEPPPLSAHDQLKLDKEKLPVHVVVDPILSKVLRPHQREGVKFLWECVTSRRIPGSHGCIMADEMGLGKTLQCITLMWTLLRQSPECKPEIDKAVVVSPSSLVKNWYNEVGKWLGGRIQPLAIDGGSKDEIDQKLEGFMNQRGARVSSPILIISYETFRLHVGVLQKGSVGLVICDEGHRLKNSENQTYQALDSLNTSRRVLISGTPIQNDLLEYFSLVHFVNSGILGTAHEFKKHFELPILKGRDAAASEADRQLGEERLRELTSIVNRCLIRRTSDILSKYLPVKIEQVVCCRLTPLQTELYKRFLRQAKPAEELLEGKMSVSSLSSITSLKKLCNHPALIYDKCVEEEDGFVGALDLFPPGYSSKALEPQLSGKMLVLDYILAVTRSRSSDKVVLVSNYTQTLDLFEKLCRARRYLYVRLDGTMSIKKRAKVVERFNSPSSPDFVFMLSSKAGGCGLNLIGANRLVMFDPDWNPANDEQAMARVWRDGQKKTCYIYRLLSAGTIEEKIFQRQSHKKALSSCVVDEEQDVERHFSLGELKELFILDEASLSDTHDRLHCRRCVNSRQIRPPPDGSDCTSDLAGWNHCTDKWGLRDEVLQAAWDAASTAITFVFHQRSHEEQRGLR

Genome polyprotein = Genome polyprotein (dengue virus type 2, UniProt P29990); test: Dengue-2 NS5 methyltransferase inhibitors, primary screen, biochemical, confirmation dose response (AID 588689); type: functional
[11] = target: Heat shock protein HSP 90-alpha (Homo sapiens, UniProt P07900); type: functional, organism-based
[12] = A549 cell cytotoxicity, dose response, cytotoxicity control, plate reader, cherry-pick, antagonist series (AID 743412); type: functional, cell-based
[13] = HepG2 cell cytotoxicity, dose response, cytotoxicity control, plate reader, cherry-pick, antagonist series (AID 743416); type: functional, cell-based
[14] = HEK293 cell cytotoxicity, dose response, cytotoxicity control, plate reader, cherry-picked samples (AID 743446); type: functional, cell-based
[15] = MC4R antagonists, dose response, counter-screen for LGR2 antagonist project, cell-based, plate reader, cherry pick (AID 743444); type: functional;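 further: transfected HEK 293 cells stimulated with alpha-MSH peptide; potency of inhibitors of the alpha-MSH evoked signal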
[16] = LGR2 antagonists, dose response, cell-based, HEK293, CRE-luciferase reporter, cherry pick, set 2 (AID 743343); type: functional;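 further: transfected cells were stimulated with diluted bursicon conditioned medium after compound addition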
[17] = intracellular Trypanosoma cruzi inhibitors in host cells – cell-based, plate reader, cherry-pick samples, set 3, dose response (AID 651818); type: functional;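 further: compounds incubated with infected cells for about four days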
[18] = target: T3, DNA repair protein RAD52 homolog (Homo sapiens, UniProt P43351); type: functional, biochemical
T3 sequence (P43351 whole entry): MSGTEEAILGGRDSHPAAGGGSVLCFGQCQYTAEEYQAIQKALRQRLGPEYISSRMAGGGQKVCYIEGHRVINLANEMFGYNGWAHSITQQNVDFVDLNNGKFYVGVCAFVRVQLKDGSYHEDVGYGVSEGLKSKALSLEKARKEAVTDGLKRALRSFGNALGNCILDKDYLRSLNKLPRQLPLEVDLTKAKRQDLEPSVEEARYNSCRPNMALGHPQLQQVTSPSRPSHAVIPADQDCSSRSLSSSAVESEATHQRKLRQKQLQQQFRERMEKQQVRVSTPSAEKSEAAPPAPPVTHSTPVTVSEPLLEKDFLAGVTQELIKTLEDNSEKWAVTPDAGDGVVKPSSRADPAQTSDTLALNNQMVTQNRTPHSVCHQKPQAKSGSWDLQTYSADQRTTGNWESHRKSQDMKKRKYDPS

[19] = target: T4, Long-chain-fatty-acid--AMP ligase FadD28 (Mycobacterium tuberculosis, UniProt P9WQ59); test: Fluorescence polarization aasay to screen for inhibitors that compete for the binding of FadD28 to a bisubstrate Measured in Biochemical System Using Plate Reader - 2147-01_Inhibitor_Dose_CherryPick_Activity.; type: functional, Mycobacterium tuberculosis H37Rv
T4 sequence (P9WQ59 whole entry): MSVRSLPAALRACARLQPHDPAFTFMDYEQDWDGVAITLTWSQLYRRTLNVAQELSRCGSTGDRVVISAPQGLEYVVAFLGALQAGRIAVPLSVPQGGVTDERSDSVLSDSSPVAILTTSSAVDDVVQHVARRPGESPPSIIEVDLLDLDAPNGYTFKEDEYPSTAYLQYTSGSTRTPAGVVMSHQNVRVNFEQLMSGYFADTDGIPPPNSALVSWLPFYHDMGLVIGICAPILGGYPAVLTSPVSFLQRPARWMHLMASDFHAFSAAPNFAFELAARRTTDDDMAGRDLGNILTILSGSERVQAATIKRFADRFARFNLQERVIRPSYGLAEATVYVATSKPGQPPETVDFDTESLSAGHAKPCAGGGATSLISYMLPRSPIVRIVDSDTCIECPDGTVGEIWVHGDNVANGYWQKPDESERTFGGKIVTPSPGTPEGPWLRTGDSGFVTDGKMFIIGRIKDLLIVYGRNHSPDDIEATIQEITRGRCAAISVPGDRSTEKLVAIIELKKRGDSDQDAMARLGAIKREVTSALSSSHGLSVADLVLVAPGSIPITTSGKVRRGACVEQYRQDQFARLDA

Sequence of Luciferin 4-monooxygenase (P08659 whole entry): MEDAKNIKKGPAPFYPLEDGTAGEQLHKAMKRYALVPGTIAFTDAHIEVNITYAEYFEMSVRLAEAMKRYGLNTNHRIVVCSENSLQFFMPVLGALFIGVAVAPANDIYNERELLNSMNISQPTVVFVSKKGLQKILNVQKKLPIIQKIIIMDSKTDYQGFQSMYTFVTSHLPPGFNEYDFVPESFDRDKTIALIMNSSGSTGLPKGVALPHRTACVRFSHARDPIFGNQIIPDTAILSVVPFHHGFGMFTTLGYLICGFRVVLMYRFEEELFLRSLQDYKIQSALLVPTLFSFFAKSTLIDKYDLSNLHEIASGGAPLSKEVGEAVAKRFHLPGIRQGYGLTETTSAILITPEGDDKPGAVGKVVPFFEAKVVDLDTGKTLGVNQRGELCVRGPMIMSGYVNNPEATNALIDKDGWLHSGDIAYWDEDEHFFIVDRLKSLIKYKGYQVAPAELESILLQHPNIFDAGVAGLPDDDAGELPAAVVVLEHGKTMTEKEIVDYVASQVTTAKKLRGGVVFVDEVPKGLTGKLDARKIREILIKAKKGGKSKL
Sequence of Genome polyprotein (P29990 2492-3391 limits assumed): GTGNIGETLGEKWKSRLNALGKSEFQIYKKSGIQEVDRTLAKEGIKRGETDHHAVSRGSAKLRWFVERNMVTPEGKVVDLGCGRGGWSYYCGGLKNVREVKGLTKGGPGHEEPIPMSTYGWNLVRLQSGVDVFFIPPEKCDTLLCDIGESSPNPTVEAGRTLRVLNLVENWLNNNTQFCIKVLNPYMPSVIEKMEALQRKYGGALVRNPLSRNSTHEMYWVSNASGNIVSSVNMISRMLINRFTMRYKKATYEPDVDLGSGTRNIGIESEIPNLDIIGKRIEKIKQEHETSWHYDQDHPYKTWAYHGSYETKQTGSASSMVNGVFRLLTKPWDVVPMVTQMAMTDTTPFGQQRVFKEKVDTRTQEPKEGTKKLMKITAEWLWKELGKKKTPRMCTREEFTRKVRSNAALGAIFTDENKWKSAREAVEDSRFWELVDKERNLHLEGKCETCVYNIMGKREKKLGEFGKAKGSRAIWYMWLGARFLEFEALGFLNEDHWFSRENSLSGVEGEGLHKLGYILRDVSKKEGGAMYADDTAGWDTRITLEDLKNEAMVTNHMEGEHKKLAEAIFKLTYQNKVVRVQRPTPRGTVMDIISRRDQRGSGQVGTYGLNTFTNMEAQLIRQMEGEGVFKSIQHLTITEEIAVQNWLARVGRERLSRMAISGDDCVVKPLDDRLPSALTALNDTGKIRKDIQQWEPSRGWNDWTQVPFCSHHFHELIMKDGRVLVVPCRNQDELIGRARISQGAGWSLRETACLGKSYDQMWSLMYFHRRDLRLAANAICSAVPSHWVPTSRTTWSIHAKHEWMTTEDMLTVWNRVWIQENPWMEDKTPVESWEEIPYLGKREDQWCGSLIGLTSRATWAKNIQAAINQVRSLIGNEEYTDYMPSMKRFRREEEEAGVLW
Sequence of FAD-linked sulfhydryl oxidase ALR (P55789 whole entry, the tested form may be a part): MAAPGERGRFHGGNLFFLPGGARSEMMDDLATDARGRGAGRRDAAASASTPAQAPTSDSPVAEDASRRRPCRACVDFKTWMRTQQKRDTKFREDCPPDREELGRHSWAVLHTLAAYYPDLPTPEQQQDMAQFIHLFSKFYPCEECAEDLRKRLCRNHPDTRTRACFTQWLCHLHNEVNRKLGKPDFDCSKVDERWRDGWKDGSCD

Cc1ccc(S(=O)(=O)c2cc(Nc3ccccc3)ccc2O)cc1
IC50 [1]: 48.9 µM (active) | CC50 [2]: 100 µM (active)

COc1ccc(NC(=O)c2ccccn2)cc1
EC50 [3]: 9.53 µM (active) | EC50 [4]: 10.5 µM (active) | AC50 (HEK293): 3.65 µM (active)

O=S(=O)(c1ccccc1Cl)N1CCCC1c1nc(-c2ccc(Cl)cc2)no1 (centres undefined)
AC50 [5]: 1.99 µM (active) | AC50 [6]: 60.9 µM (active) | AC50 [7]: 14.8 µM (active)

COc1ccc(-c2c[nH]nc2N)c(OC)c1
AC50 [8]: 0.411 µM (active) | AC50 [5]: 3.7 µM (active) | AC50 [6]: 20 µM (active) | AC50 [7]: 4.98 µM (active) | AC50 [9]: 32.5 µM (active)

Cc1ccc2oc(=O)c3cc(C(=O)NCCCN4CCN(C)CC4)sc3c2c1
AC50 [10]: 34 µM (active)

O=C(O)CCn1cc(C=C2C(=O)NC(=O)NC2=O)c(-c2ccc(Br)cc2)n1
IC50 [1]: 95.3 µM (active) | IC50 (Genome polyprotein): 7.97 µM (active)

CCCCCCC(=O)N(O)C1CC(=O)N(c2ccc(F)cc2)C1=O (centres undefined)
AC50 [11]: 2.58 µM (active)

C=CCN(C(=O)C1CC(=O)N(C2CCCC2)C1)c1nc(-c2ccc(S(C)(=O)=O)cc2)cs1 (centres undefined)
AC50 [12]: 36.7 µM (active) | AC50 [13]: > 52 µM (inactive) | AC50 [14]: 30.1 µM (active) | AC50 [15]: 41.5 µM (active) | AC50 [16]: 25.8 µM (active)

CN(C)c1ccc2c(c1)C(=NO)c1ccccc1-2
IC50 [1]: 33.5 µM (active) | CC50 [2]: 100 µM (active)

C[N+](C)(C)CCC(=O)N1C/C(=C/c2ccccc2)C(=O)/C(=C\c2ccccc2)C1
IC50 [1]: 128 µM (active) | CC50 [2]: 100 µM (active)

C[C@@H]1CN([C@H](C)CO)C(=O)Cc2cc(NC(=O)Nc3ccc(F)cc3)ccc2O[C@H]1CN(C)Cc1ccc(-c2ccccc2)cc1
AC50 [17]: 3.36 µM (active)

C[C@H]1CN([C@@H](C)CO)C(=O)Cc2cc(NC(=O)Cc3ccccc3)ccc2O[C@H]1CN(C)Cc1ccc(C(F)(F)F)cc1
AC50 [17]: 2.61 µM (active)

CN1CCCN(c2cc(-c3ccc4ccccc4c3)nc3ccnn23)CC1
AC50 [18]: 1.57 µM (active) | AC50 [10]: 8.49 µM (active)

C[C@@H]1CN([C@H](C)CO)C(=O)Cc2cc(NC(=O)Nc3ccc4c(c3)OCO4)ccc2O[C@@H]1CN(C)Cc1ccc(C(F)(F)F)cc1
AC50 [17]: 3.86 µM (active)

Cc1ccc(S(=O)(=O)N(C)C[C@H]2Oc3ccc(NS(=O)(=O)c4ccccc4)cc3CC(=O)N([C@H](C)CO)C[C@H]2C)cc1
AC50 [17]: 2.56 µM (active)

C[C@H]1CN([C@@H](C)CO)C(=O)Cc2cc(NC(=O)Nc3ccc(C(F)(F)F)cc3)ccc2O[C@H]1CN(C)Cc1ccncc1
AC50 [17]: 5.53 µM (active)

C[C@@H]1CNC(=O)c2c(C(=O)N(C)Cc3ccccc3)ncn21
AC50 [5]: 1.86 µM (active) | AC50 [6]: 3.39 µM (active) | AC50 [7]: 3.68 µM (active) | AC50 [9]: 4.8 µM (active)

O=C(O)c1ccc(N/N=C/c2ccc(-c3ccccc3)cc2)cc1
AC50 [19]: 10.9 µM (active) | AC50 [11]: 3.09 µM (active)
